# Where two headings read alike, the source gives them in different places.
# What was measured:
# HIV-1 CNE4 = format: cell-based; settings: Table 7; CNE4, clade B′, R5
# HIV-1 CNE46 = format: cell-based; settings: Table 7; CNE46, clade BC, R5
# HIV-1 CH110 = format: cell-based; settings: Table 7; CH110, clade BC, R5
# HIV-1 CNE9 = format: cell-based; settings: Table 7; CNE9, clade B′, R5
# HIV-1 CNE16 = format: cell-based; settings: Table 7; CNE16, clade BC, R5
# HIV-1 CNE64 = format: cell-based; settings: Table 7; CNE64, clade B′, R5
# HIV-1 CH120 = format: cell-based; settings: Table 7; CH120, clade BC, R5
# HIV-1 CNE55 = format: cell-based; settings: Table 7; CNE55, clade AE, R5
# HIV-1 CH114 = format: cell-based; settings: Table 7; CH114, clade BC, R5
# HIV-1 CH119 = format: cell-based; settings: Table 7; CH119, clade BC, R5
# HIV-1 BZ167.ec9 = test: TZM-bl cell-based neutralization assay; settings: Table 6; BZ167.ec9, clade B, X4
# HIV-1 KNH1144.EC1 = test: TZM-bl cell-based neutralization assay; settings: Table 6; KNH1144.EC1, clade A, R5
# HIV-1 N1 1046.e3 PV = test: TZM-bl cell-based neutralization assay; settings: Table 6, clade AE, R5
# HIV-1 A07412VRC12A = test: TZM-bl cell-based neutralization assay; settings: Table 6, clade D, R5
# [1] = tested on: HIV-1 isolates from clades A to D, AE, and AG; test: TZM-bl cell-based neutralization assay, means over the panel (n=12); settings: Table 6, all viruses, >167 nM assigned 200, >250 assigned 300
# HIV-1 CAM0015BBY.EC3 = test: TZM-bl cell-based neutralization assay; settings: Table 6; CAM0015BBY.EC3, clade AG, R5
# [2] = Solubility of fusion proteins in PBS (concentration, centrifugation); format: physicochemical
# Experimental: To evaluate the potential for further development as drugs, several drug-related properties, including solubility, stability, and aggregation propensity were tested.
# HIV-1 GXE = test: Pseudotyped HIV-1 neutralization (HOS-CD4-CCR5 cells); format: cell-based; settings: Table 3, clade E, R5
# Experimental: (§1) To determine the potency and breadth of HIV-1 neutralization by the D1 mutants, viruses pseudotyped with Envs from HIV-1 isolates representing clades A-E and using either CCR5 (R5) or CXCR4 (X4) or both (R5X4) as a coreceptor were included. Pseudoviruses were derived from 293T cells and a neutralization assay was performed in duplicate using HOS-CD4-CCR5 (for all R5 and dual tropic viruses) or HOS-CD4-CXCR4 cell lines as described in Chen et al., Proc. Natl. Acad. Sci. USA, 105: 17121-17126 (2008)). Luminescence was measured 48 hours post-infection and the percentage neutralization was calculated by the following formula: (1—average RLU of inhibitor-containing wells/average RLU or virus-only wells)×100.
# HIV-1 R2 = test: as above; format: cell-based; settings: Table 3; R2, clade B, R5
# Experimental: as §1
# HIV-1 CM243 = test: as above; format: cell-based; settings: Table 3; CM243, clade E, R5
# Experimental: as §1
# HIV-1 AD8 = test: as above; format: cell-based; settings: Table 3; AD8, clade B, R5
# Experimental: as §1
# HIV-1 JRFL = test: as above; format: cell-based; settings: R5
# Experimental: as §1
# HIV-1 Bal = test: as above; format: cell-based; settings: R5
# Experimental: as §1
# HIV-1 GXC = test: as above; format: cell-based; settings: Table 3, clade C, R5
# Experimental: as §1
# HIV-1 JRCSF = test: as above; format: cell-based; settings: Table 3, clade B, R5
# Experimental: as §1
# HIV-1 Z2Z6 = test: as above; format: cell-based; settings: Table 3; Z2Z6, clade D, R5
# Experimental: as §1
# HIV-1 89.6 = test: as above; format: cell-based; settings: Table 3; 89.6, clade B, R5X4
# Experimental: as §1
# HIV-1 92UG037.8 = test: as above; format: cell-based; settings: Table 3; 92UG037.8, clade A, R5
# Experimental: as §1
substance,measurement,setting,value
enfuvirtide,IC50,HIV-1 CNE4,1.7 nM
same,IC90,HIV-1 CNE4,14 nM
same,IC50,HIV-1 CNE46,26 nM
same,IC90,HIV-1 CNE46,743 nM
same,IC50,HIV-1 CH110,4.3 nM
same,IC90,HIV-1 CH110,262 nM
same,IC50,HIV-1 CNE9,1.7 nM
same,IC90,HIV-1 CNE9,14 nM
same,IC50,HIV-1 CNE16,14 nM
same,IC90,HIV-1 CNE16,169 nM
same,IC50,HIV-1 CNE64,1.9 nM
same,IC90,HIV-1 CNE64,16 nM
same,IC50,HIV-1 CH120,11 nM
same,IC90,HIV-1 CH120,443 nM
same,IC50,HIV-1 CNE55,26 nM
same,IC90,HIV-1 CNE55,549 nM
same,IC50,HIV-1 CH114,102 nM
same,IC90,HIV-1 CH114,> 750 nM
same,IC50,HIV-1 CH119,2 nM
same,IC90,HIV-1 CH119,25 nM
4Dm2m: bispecific multivalent fusion protein of mD1.22 and m36.4; two SEQ ID NO: 20 and two SEQ ID NO: 21 chains,IC50,HIV-1 CNE4,0.11 nM
same,IC90,HIV-1 CNE4,2.4 nM
same,IC50,HIV-1 CNE46,0.27 nM
same,IC90,HIV-1 CNE46,9.4 nM
same,IC50,HIV-1 CH110,0.11 nM
same,IC90,HIV-1 CH110,0.83 nM
same,IC50,HIV-1 CNE9,0.22 nM
same,IC50,HIV-1 CNE16,0.08 nM
same,IC90,HIV-1 CNE16,1.2 nM
same,IC50,HIV-1 BZ167.ec9,0.077 nM
same,IC90,HIV-1 BZ167.ec9,0.5 nM
same,IC50,HIV-1 KNH1144.EC1,0.081 nM
same,IC90,HIV-1 KNH1144.EC1,1 nM
same,IC90,HIV-1 N1 1046.e3 PV,27 nM
same,IC50,HIV-1 A07412VRC12A,0.75 nM
same,IC90,HIV-1 A07412VRC12A,5.7 nM
same,IC50,"[1]; read-out: IC50, arithmetic mean",0.72 nM
same,IC50,"[1]; read-out: IC50, geometric mean",0.28 nM
same,IC90,"[1]; read-out: IC90, geometric mean",2.4 nM
same,IC50,HIV-1 CNE64,0.56 nM
same,IC50,HIV-1 CAM0015BBY.EC3,0.72 nM
same,IC90,HIV-1 CAM0015BBY.EC3,7.4 nM
same,precipitation on storage,[2]; 4° C. for 2 weeks,no additional precipitation was observed
same,concentration reached in PBS without visible precipitation after high-speed centrifugation,[2]; PBS,25000 µg/mL
same,IC50,HIV-1 CH120,0.33 nM
same,IC90,HIV-1 CH120,6.6 nM
same,IC50,HIV-1 CNE55,0.45 nM
same,IC90,HIV-1 CNE55,10 nM
same,IC50,HIV-1 GXE,0.83 ± 0.11 nM
same,IC90,HIV-1 GXE,8.2 ± 1.3 nM
same,IC50,HIV-1 R2,0.028 ± 0.011 nM
same,IC90,HIV-1 R2,0.43 ± 0.18 nM
same,IC50,HIV-1 CM243,0.29 ± 0.11 nM
same,IC90,HIV-1 CM243,1.2 ± 0.6 nM
same,IC50,HIV-1 AD8,0.13 ± 0.01 nM
same,IC90,HIV-1 AD8,0.74 ± 0.06 nM
same,IC50,"HIV-1 JRFL; Table 2, clade B",0.06 nM
same,IC90,"HIV-1 JRFL; Table 2, clade B",0.29 nM
same,IC50,"HIV-1 JRFL; Table 3, clade B",0.14 ± 0.01 nM
same,IC90,"HIV-1 JRFL; Table 3, clade B",0.39 ± 0.04 nM
same,IC50,"HIV-1 Bal; Table 2, clade B",0.12 nM
same,IC90,"HIV-1 Bal; Table 2, clade B",0.36 nM
same,IC50,"HIV-1 Bal; Table 3, clade B",0.15 ± 0.04 nM
same,IC90,"HIV-1 Bal; Table 3, clade B",0.5 ± 0.07 nM
same,IC50,HIV-1 GXC,0.61 ± 0.36 nM
same,IC90,HIV-1 GXC,4 nM
same,IC50,HIV-1 JRCSF,0.29 ± 0.18 nM
same,IC90,HIV-1 JRCSF,3 ± 2.9 nM
same,IC50,HIV-1 Z2Z6,0.14 ± 0.04 nM
same,IC90,HIV-1 Z2Z6,1.1 ± 0.1 nM
same,IC50,HIV-1 89.6,< 0.021 nM
same,IC90,HIV-1 89.6,< 0.021 nM
same,IC50,HIV-1 92UG037.8,0.051 ± 0.001 nM
same,IC90,HIV-1 92UG037.8,0.45 ± 0.01 nM
same,IC50,HIV-1 CH114,0.11 nM
same,IC90,HIV-1 CH114,4 nM
same,IC90,HIV-1 CH119,3.4 nM

# Source: US20160039904A1, “STABILIZED SINGLE HUMAN CD4 DOMAINS AND FUSION PROTEINS” (priority 2013, published 2016)
